Reference: paper PMC6753144, “Exploiting biofilm phenotypes for functional characterization of hypothetical genes in Enterococcus faecalis” (NPJ Biofilms and Microbiomes, 2019)

Molecular target: T1, Bph-H6 (Bph, OG1RF_10435, biofilm phosphatase) (Enterococcus faecalis, UniProt A0ACD6T9Q6)
T1 construct: full length, 177 residues, C-terminal His6 tag (pET28b+, NcoI/XhoI), expressed in E. coli BL21(DE3), Ni-NTA purified
Experiment: malachite green phosphate release assay
Assay type: biochemical
Conditions: 10 mM Mn2+, pH 7.5, 37 °C, 1 h, 1 µM enzyme, 100 µM substrate

T1 sequence (A0ACD6T9Q6 entry or part of it): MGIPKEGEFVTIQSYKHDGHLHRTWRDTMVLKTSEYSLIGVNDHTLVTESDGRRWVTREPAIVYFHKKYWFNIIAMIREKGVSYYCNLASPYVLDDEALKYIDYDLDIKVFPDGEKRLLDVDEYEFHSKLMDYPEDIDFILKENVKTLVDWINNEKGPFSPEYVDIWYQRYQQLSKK

Row | Compound | malachite green phosphate release assay
1 | Nc1ncnc2c1ncn2[C@@H]1O[C@H](COP(=O)(O)OP(=O)(O)OP(=O)(O)O)[C@@H](O)[C@H]1O [ATP] | Bph-H6 had in vitro phosphatase activity on nucleoside triphosphate, nucleoside diphosphate, and deoxynucleoside phosphate substrates
2 | Nc1nc2c(ncn2[C@@H]2O[C@H](COP(=O)(O)OP(=O)(O)O)[C@@H](OP(=O)(O)OP(=O)(O)O)[C@H]2O)c(=O)[nH]1 [ppGpp] | We also detected phosphatase activity against ppGpp, the second messenger
